Data published in PMC10196831, “Therapeutic effect of ultra-long-lasting human C-peptide delivery against hyperglycemia-induced neovascularization in diabetic retinopathy” (Theranostics, 2023).

Tests used:
[1] = in vivo; cited from earlier work
[2] = Intraocular C-peptide levels by human C-peptide ELISA after intravitreal injection; type: in vivo, C57BL/6 mice; conditions: C57BL/6, mouse, 1.2 ug, single intravitreal injection of equimolar K9-C-peptide (20 μg) or human C-peptide (1.2 μg), whole eyeball lysate, 50 kDa cutoff filtrate, n = 6, read-out: intraocular human C-peptide level at 1 day after injection
Experimental: To analyze the levels of C-peptide released from intravitreal K9-C-peptide depots, mice were anesthetized with 3% isoflurane and intravitreally injected with a total volume of 2 μL containing 0.6 mg/mL (1.2 μg) C-peptide or 10 mg/mL (20 μg) K9-C-peptide. Proteins were extracted from whole eyeballs using lysis buffer containing 50 mmol/L Tris (pH 7.5), 150 mmol/L sodium chloride, 1% Triton X-100, protease inhibitor cocktail (Roche, Basel, Switzerland), 25 mmol/L β-glycerophosphate, and 2 mmol/L sodium orthovanadate. The lysates were centrifuged at 14,000 rpm for 15 min, and then the supernatants were centrifuged at 8,000 rpm for 10 min using Amicon® Ultra 4 mL centrifugal filters with a molecular weight cutoff of 50 kDa (MilliporeSigma). C-peptide levels in the filtered supernatants (n = 6) were measured using a human C-peptide ELISA kit (MilliporeSigma) according to the manufacturer's protocol.

SMILES: CC(C)C[C@H](NC(=O)[C@H](C)NC(=O)[C@H](CC(C)C)NC(=O)[C@@H]1CCCN1C(=O)[C@H](CCC(N)=O)NC(=O)[C@H](CC(C)C)NC(=O)[C@H](CO)NC(=O)CNC(=O)[C@H](C)NC(=O)CNC(=O)[C@@H]1CCCN1C(=O)CNC(=O)CNC(=O)CNC(=O)[C@H](CC(C)C)NC(=O)[C@H](CCC(=O)O)NC(=O)[C@@H](NC(=O)[C@H](CCC(N)=O)NC(=O)CNC(=O)[C@@H](NC(=O)[C@H](CCC(N)=O)NC(=O)[C@H](CC(C)C)NC(=O)[C@H](CC(=O)O)NC(=O)[C@H](CCC(=O)O)NC(=O)[C@H](C)NC(=O)[C@@H](N)CCC(=O)O)C(C)C)C(C)C)C(=O)N[C@@H](CCC(=O)O)C(=O)NCC(=O)N[C@@H](CO)C(=O)N[C@@H](CC(C)C)C(=O)N[C@@H](CCC(N)=O)C(=O)O [human C-peptide]
- circulating half-life [1]: 30 min
- level at time molar at 24 h [2]: 0.07 nM
